Measurements reported in US20080299060A1, “Pharmaceutical Composition for the Treatment of Nail Diseases” (TLT MEDICAL LTD., priority 2006, published 2008).

Experiment: In-vitro nail permeation assay (Franz type diffusion cells)
Format: in vitro ADME, human
Conditions: for Mean value of terbinafine concentration in the 5 mL receptor chamber of the Franz cell, Day 3 / Mean value of terbinafine concentration in the 5 mL receptor chamber of the Franz cell, Day 5: n=3
Source text: Permeation fluxes of active substances, determined from nail permeation assays, are used to predict the efficacy of the active substances in a clinical situation. A permeation assay similar to the one reported by Franz (T. J. Franz, Dermatology, 184, 18-20, 1992) was used to investigate the applicability of the present invention to the treatment of onychomycosis and, in particular, to evaluate the permeation fluxes of a terbinafine containing pharmaceutical composition and a protective layer in laser pre-treated human cadaver great toenails. The experimental setup emulates the clinical situation where the pharmaceutical composition remains liquid for an extended period of time inside the nail holes in the case of laser pretreated nails to maximize the diffusion of the terbinafine into the nail.
Human cadaver great toenails selected for the tests were soaked in physiological buffer solution for several hours before starting the assay. Nails were prepared for the assay by removal of epidermal residues on the ventral side. Round nail discs of 16 mm in diameter were punched. […] Nails were masked on the dorsal side by a silicon mounting ring leaving a nail area of 10 mm in diameter where the nails were exposed to the pharmaceutical composition and the protective layer.
Three groups of nail samples were investigated.
Group 1: Untreated nail samples were used in this group which is the control group. These nails were exposed to 25 μL of a lacquer containing 9% w/w terbinafine once a day.
Group 2: In this group perforated nails were used. These nails were exposed to 25 μL of a 10% w/w terbinafine in ethanol solution once a day. After the application of the 10% w/w ethanolic solution to these nails, nails were covered with 25 μL of a lacquer containing 9% w/w terbinafine to form the protective layer according to the present invention.
Group 3: In this group perforated nails were used. These nails were exposed to 25 μL of a 10% w/w terbinafine in ethanol solution once a day. After the application of the 10% w/w ethanolic solution to these nails, these nails were covered with 25 μL of a lacquer without terbinafine to form the protective layer according to the present invention.
Franz type diffusion cells made of glass were used in the assays having a volume of ca. 5 mL using demineralized water as receptor buffer. Nail samples were fixed on the Franz cells with sealing silicone and Teflon discs pressed with a metallic spring loading system. In this way the ventral sides of the nails were in contact with demineralized water in the cell while the dorsal sides were in contact with the pharmaceutical formulations and protective layer according to Table 1. Diffusion cells were kept at 32° C. during the permeation assays.
Cleaning of the nail sample and dissolution of previous layers of pharmaceutical composition and protective layers were performed prior to every reapplication of the pharmaceutical composition and the protective layer. For this purpose 100 microliters of dissolvent were applied to every nail sample. Subsequently, the nail samples were rubbed with a cleaning brush to ensure an exhaustive cleaning and then were dried with a cotton swab to remove with the dissolvent also the old components of the pharmaceutical solution and the protective layer. 25 microliters of the pharmaceutical composition were then applied to the exposed nail area and distributed with the application brush.
Samples of receptor fluid were collected at various time points and analyzed by liquid chromatography and mass spectroscopy. The removed sample volume was replaced by demineralized water. This dilution effects were accounted in the final determination of the permeation fluxes.

[1] = Group 1 (control): untreated nails, 9% w/w terbinafine lacquer once a day, dissolvent ethanol, 32° C.
[2] = Group 2: laser pretreated nails (400 partial orifices/cm^2), 10% w/w terbinafine in ethanol once a day, protective layer 9% w/w terbinafine lacquer
[3] = Group 3: laser pretreated nails (400 partial orifices/cm^2), 10% w/w terbinafine in ethanol once a day, protective layer lacquer without terbinafine

CN(C/C=C/C#CC(C)(C)C)Cc1cccc2ccccc12 [terbinafine]
Permeation Fluxes (Group 1 (control): untreated nails, 9% w/w terbinafine lacquer once a day, dissolvent ethanol): 4.34 ng/cm^2/h
Mean value of terbinafine concentration in the 5 mL receptor chamber of the Franz cell, Day 3 [1]: 82.4 ng/mL
Mean value of terbinafine concentration in the 5 mL receptor chamber of the Franz cell, Day 5 [1]: 115.1 ng/mL
increase in the permeation fluxes as compared to the control group (group 1) (Group 2 (protective layer also contains terbinafine) vs group 1): 34 fold
Mean value of terbinafine concentration in the 5 mL receptor chamber of the Franz cell, Day 3 [2]: 305.2 ng/mL
Mean value of terbinafine concentration in the 5 mL receptor chamber of the Franz cell, Day 5 [2]: 1432.9 ng/mL
Permeation Fluxes (Group 2: laser pretreated nails, 10% w/w terbinafine in ethanol once a day, protective layer 9% w/w terbinafine lacquer): 149.6 ng/cm^2/h
increase in the permeation fluxes as compared to the control group (group 1) (Group 3 (protective layer does not contain terbinafine) vs group 1): 5 fold
Mean value of terbinafine concentration in the 5 mL receptor chamber of the Franz cell, Day 3 [3]: 94.5 ng/mL
Mean value of terbinafine concentration in the 5 mL receptor chamber of the Franz cell, Day 5 [3]: 272.6 ng/mL
Permeation Fluxes (Group 3: laser pretreated nails, 10% w/w terbinafine in ethanol once a day, protective layer lacquer without terbinafine): 23.6 ng/cm^2/h
